Measured values as given in the METLIN SMRT retention time set (Domingo-Almenara et al. 2019).

Assay: gradient 5% acetonitrile 3 min, to 50% in 2 min, to 85% in 15 min, held 3 min, 100 µL/min
Settings: column: Zorbax Extend-C18 2.1 x 50 mm; eluents: water / acetonitrile, 0.1% formic acid
Procedure, shortened: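 Standards, all pure, were combined into mixtures of ~100 molecules and run at 100 μL/min on a Zorbax Extend-C18 column (2.1 × 50 mm, 1.8 μm) with water and acetonitrile, each containing 0.1% formic acid. A coupled quadrupole time-of-flight mass spectrometer operated in positive and negative ionization mode. Retention time values come from computationally picked adduct peaks, each inspected manually.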

Row | RP-LC retention time [s] | Structure (SMILES)
1 | 697 | Cc1ccc(NC(=O)C2CCN(S(=O)(=O)c3ccc4c(c3)sc(=O)n4C)CC2)nc1
2 | 1130 | CC(=O)N1CCCSc2ccc(S(=O)(=O)N3CCN(c4cc(C)ccc4C)CC3)cc21
3 | 567 | CCN1CCN(c2ccc(NC(C)=O)cn2)C1=O
4 | 674 | Cc1noc(C2CN(CCc3ccccc3)CC23CCCC3)n1 (stereo not given)
5 | 842 | Cc1ccc(NC(=O)Cn2c(-c3cnccn3)nc(C)c(C)c2=O)cc1Cl
6 | 922 | COc1ccccc1NC(=O)N1CCc2nc(-c3ccccc3)ncc2C1
7 | 1010 | CCNC(=O)NC1CCN(c2nc3cccnc3n(Cc3ccc(C)cc3)c2=O)CC1
8 | 1140 | Fc1ccccc1-c1noc(-c2nc(-c3ccccc3F)no2)n1
9 | 1020 | CN1C(=O)C2CCCCN2c2ccc(C(=O)N3CCN(c4ccc(Cl)cc4)CC3)cc21 (stereo not given)
10 | 940 | Cc1cccc(Cn2nc3n(Cc4ccc(F)cc4)c(=O)c4nn(C)cc4n3c2=O)c1
11 | 715 | Cc1ccc(CNC(=O)C2CCN(S(=O)(=O)c3ccc4c(c3)NC(=O)CO4)CC2)o1
12 | 826 | O=C(NC1CCCC1)c1nc2ccccn2c1-c1ccc(F)cc1
13 | 997 | O=C(Nc1ccc(F)cc1F)C1CCN(S(=O)(=O)c2cc(-c3noc(C4CC4)n3)cs2)CC1
14 | 797 | CCNC(=O)c1c(-c2cccc(F)c2)noc1C
15 | 588 | NC(=O)C1(N2CCCCC2)CCN(C(=O)c2c(-c3ccccc3)nnc3ccccc23)CC1
16 | 1260 | CCc1ccc(-c2csc(NC(=O)c3ccc(S(=O)(=O)N4CCCCC4)cc3)n2)cc1
17 | 659 | O=C(N[C@H]1C[C@@H]2C[C@H]1CN2C(=O)c1ccc(Cl)s1)c1cccnc1
18 | 744 | COC(=O)c1ccc2c(=O)n(Cc3ccc(OC)cc3)c(N3CCC(C(N)=O)CC3)nc2c1
19 | 670 | Cc1ccc(-c2cc(C(=O)NCCN3CCCC3)n(C)c2)cc1
20 | 946 | O=C(NCc1ccccc1Cl)c1nc(Cn2c(=O)oc3ccccc32)no1
21 | 890 | Cc1ccccc1NC(=O)N1CCCC1c1cc(C(C)C)on1 (stereo not given)
22 | 786 | O=C(C1=CN(c2ccc(F)c(Cl)c2)c2ccccc2S1(=O)=O)N1CCOCC1
23 | 1020 | Cc1ccc(Cn2c(N3CCCC(C(=O)NC4CCCCC4)C3)nc3ccsc3c2=O)cc1 (stereo not given)

Row | RP-LC retention time [s] | Structure (SMILES)
24 | 759 | CCC(C)n1c(C)cc(=O)n1C(C)CC (stereo not given)
25 | 1060 | CC(NC(=O)C1CCCN(c2nccnc2Sc2ccccc2)C1)c1ccccc1 (stereo not given)
26 | 765 | Cn1c(=O)c2cc(C(=O)NCCCc3ccccc3)sc2n(C)c1=O
27 | 642 | CC12CC(NC(=O)N1c1cccc(C(=O)NCc3cccnc3)c1)c1cc(Br)ccc1O2 (stereo not given)
28 | 686 | CCCNC(=O)C1CCCN(c2ccc(SCC(=O)Nc3ccc(C)cc3)nn2)C1 (stereo not given)
29 | 626 | O=C([C@@H]1C[C@H](F)CN1C(=O)c1ccco1)N1CCCCC1
30 | 1080 | Cc1ccc2c(c1)N(CCC(C)C)N=C(C(=O)N1CCCCC1)S2(=O)=O
31 | 1110 | Cc1sc(-c2cc(C(F)(F)F)[nH]n2)cc1S(=O)(=O)N1CCN(c2ccc(F)cc2)CC1
32 | 821 | CC1=C(c2ccccc2)S(=O)(=O)N=C1N1CCCN(C(=O)c2ccc(C)s2)CC1
33 | 721 | COc1ccc(C(=O)Oc2ccc[nH]c2=O)cc1
34 | 569 | Cc1nccn1CCNC(=O)c1cc(-c2ccccc2)on1
35 | 689 | CCc1ccc(CN2CCn3c(nn(C)c3=O)C2)cc1
36 | 953 | O=C(Nc1nccs1)c1ccccc1OCc1nc(-c2ccccc2)no1
37 | 887 | CC(=O)Nc1ccc(NC(=O)COc2cc(C)nc(-c3ccc(C(F)(F)F)cc3)n2)cc1
38 | 1170 | Cc1nc(C2CC23CCN(S(=O)(=O)c2c(C)c(C)cc(C)c2C)CC3)no1 (stereo not given)
39 | 1000 | CCn1c(=O)c2ccccc2n(Cc2nc(-c3cc(OC)cc(OC)c3)no2)c1=O
40 | 643 | Cc1nc2ccccn2c(=O)c1CCN1CCC(C(=O)c2ccc(F)cc2)CC1
41 | 596 | O=C(NCc1cccnc1)c1nnc(-c2ccc(S(=O)(=O)N3CCOCC3)cc2)o1
42 | 617 | COc1ccc(Nc2c(-c3ccc(O)c(OC)c3)nc3nc(C)cc(C)n23)cc1
43 | 738 | Cn1nnc2cc(C(=O)N3CCCCC3)ccc21
44 | 527 | Cc1ncsc1CN1CCCC(n2c(C)cnc2-c2cccnc2)C1 (stereo not given)
45 | 764 | O=C(NCC1CCOCC1)Nc1ccc(Cl)cc1F
46 | 1180 | CCN(CC)c1nc2cc(C(=O)OC)ccc2c(=O)n1-c1cc(F)cc(F)c1

Row | RP-LC retention time [s] | Structure (SMILES)
47 | 554 | COC(=O)N1CCc2ccc(F)cc2C1C(=O)NCc1cccnc1 (stereo not given)
48 | 769 | CCCS(=O)(=O)N1CCc2c(c(-c3nncn3Cc3ccccc3)nn2C)C1
49 | 658 | COc1cccc(NC(=O)Cn2cnc3nc(N4CCC(C(=O)NC5CC5)CC4)sc3c2=O)c1
50 | 571 | Cc1nnc2n1CCC(N(C)C(=O)Cc1cccs1)CC2 (stereo not given)
51 | 764 | CCc1sc(NC(=O)Cn2nc3c(cc2=O)CCCC3)nc1C(=O)OC
52 | 612 | O=C(CSc1ccc(N2CCCC(C(=O)NC3CC3)C2)nn1)Nc1ccc2c(c1)OCO2 (stereo not given)
53 | 680 | Cc1ccc(C(=O)Nc2ccc(-c3nnc4n3CCCC4)cc2)s1
54 | 818 | Cc1ccc(C)c(C(=O)CCC(=O)O)c1
55 | 625 | O=C1CCCN1CCCN1C(=O)[C@H]2CN(Cc3cccc(F)c3F)C[C@H]2C1=O
56 | 1160 | C=C1C[C@H]2[C@@H]3CCC4=CC(=O)CC[C@@H]4[C@H]3CC[C@]2(C)[C@@]1(OC(C)=O)C(C)=O
57 | 758 | CCCCN(CC)CCNC(=O)c1cn2c3c(ccc(Cl)c3c1=O)OCC2
58 | 680 | Cn1c(N2CCN(C(=O)Cc3ccc(F)cc3)CC2)cc(=O)n(C)c1=O
59 | 740 | COc1ccc(OC)c(NC(=O)Cn2nc3c4ccc(Cl)cc4ncn3c2=O)c1
60 | 1220 | Cc1sc2ncnc(N3CCCC(C)C3)c2c1C(=O)Nc1cc(F)ccc1F (stereo not given)
61 | 998 | Cc1ccc(C)c(N2CC(c3nc(-c4ccc5c(c4)OCO5)no3)CC2=O)c1 (stereo not given)
62 | 641 | CC(NC(=O)c1ccccc1)c1nc(-c2ccc3nnn(C)c3c2)no1 (stereo not given)
63 | 807 | CCOc1ccc(CCNC(=O)C2CCCN(c3ncnc4c3nc3n4CCCCC3)C2)cc1 (stereo not given)
64 | 846 | COc1ccc(-c2noc(CN3CCN(c4ccccc4)CC3)n2)cc1OC
65 | 598 | CCCN1CCN(CCCNC(=O)CCc2nc(N3CCCCC3)c3c(CC)noc3n2)CC1
66 | 743 | NC(=O)c1cc(-c2ccccc2)nc2ccccc12
67 | 979 | CCOC(=O)c1nc(N2CCC(Cc3ccccc3)CC2)c2ccccc2n1
68 | 807 | CN(C)[C@@H](CCOc1cccc2ccccc12)c1ccccc1
69 | 663 | O=C(Cn1nc(Cc2cccnc2)c2ccccc2c1=O)NCCC1=CCCCC1

Row | RP-LC retention time [s] | Structure (SMILES)
70 | 1400 | COc1ccc(-c2ccnn2-c2ccc(SCc3cccc(C)c3)nn2)cc1
71 | 866 | CCOC(=O)c1c(C)[nH]c(C(=O)N2CCC(CC(=O)NCc3ccc(OC(C)C)cc3)CC2)c1C
72 | 1020 | CCn1ccc2oc(C)c(C(=O)NCc3ccccc3Br)c2c1=O
73 | 722 | Cc1cccc(NC(=O)Cc2cn(C)c3ncccc23)c1
74 | 1050 | Cc1c(Cl)cccc1S(=O)(=O)N1CCc2c(c(-c3nnc(-c4ccccc4F)o3)nn2C)C1
75 | 727 | Clc1ccc(-c2cc3c(N4CCN(c5ccccn5)CC4)nccn3n2)cc1
76 | 660 | CCOC(=O)C1=C(CN2CCc3ccccc3C2)NC(=O)NC1c1cccc(OC)c1OC (stereo not given)
77 | 799 | CCOC(=O)c1noc2ncnc(Nc3ccc(F)cc3F)c12
78 | 637 | O=C(c1ccc(=O)n(CCN2CCOCC2)c1)N1CCC(Cc2ccccc2)CC1
79 | 568 | O=C(O)c1nnn(-c2ccc3c(c2)OCCO3)c1-c1cccnc1
80 | 1090 | CCCn1cc(C(=O)Nc2cc(OC)ccc2OC)c(=O)c2ccc(C)nc21
81 | 1130 | CCc1nc(-c2csc(S(=O)(=O)N3CCCC(C(=O)Nc4cc(C)ccc4OC)C3)c2)no1 (stereo not given)
82 | 745 | CCS(=O)(=O)N1CCC2(CC1)CN(Cc1ccc(OC)cc1)C2=O
83 | 759 | CNC(=O)N1CCCC(c2nc(CCOCC3CCCC3)no2)C1 (stereo not given)
84 | 642 | CCNc1cc(N2CCC(CCC(=O)NCc3ccc(C)o3)CC2)ncn1
85 | 585 | NCCC1CCN(C(=O)Nc2ccc(F)cc2F)CC1
86 | 750 | O=C(Nc1c(-c2ccc(F)cc2)nc2ccccn12)c1cccc(Cl)c1
87 | 554 | CCNc1cc(N2CCC(CCC(=O)NCc3nc4ccccc4n3C)CC2)ncn1
88 | 698 | CCS(=O)(=O)N1CCC[C@H](n2c(=O)n(C)c3cccnc32)C1
89 | 931 | COc1ccc2oc(-c3ccccc3)c(C(=O)Nc3nccs3)c2c1
90 | 647 | COCCNCc1ccc(-c2cccc(Cl)c2)o1
